What all share (assay type): cell-based
One assay has as its system Botrytis cinerea. The assay is described as follows: In vitro-test with fungal microorganisms: Botrytis cinerea. As to conditions: 2.5 ppm. On the procedure:
(§1) The degree of efficacy, expressed in % is denoted. 0% means an efficacy which corresponds to that of the control while an efficacy of 100% means that no disease is observed.
(§2) Wells of 96-well microtiter plates are filled with 30 μl of a preparation of test compound or compound combination in methanol+emulsifier alkylaryl-polyglycol-ether. Thereafter, the solvent is evaporated in a hood. At the next step, into each well 200 μl of liquid growth medium is given, that has been amended with an appropriate concentration of spores or mycelium suspension of the test fungus.
(§3) With the aid of a photometer the extinction in all wells is measured at the wavelength of 600 nm.
(§4) The microtiter plates are incubated for 3 to 7 days at 20° C. and 85% relative humidity. After the incubation inhibition of growth is determined photometrically. Efficacy is calculated in relation to the untreated control, 0% efficacy means fungal growth as high as in untreated control while 100% efficacy means no fungal growth is measured.

Another assay concerns Diaporthe citri. The assay is described as follows: In vitro-test with fungal microorganisms: Diaporthe citri. As to the method: as §1, §2, §3, §4
In another assay the test system is Cercospora beticola. Put plainly: In vitro-test with fungal microorganisms: Cercospora beticola. On the procedure: as §1, §2, §3, §4
Another assay concerns Alternaria alternata. The assay is described as follows: In vitro-test with fungal microorganisms (microtiter plate, photometric growth inhibition): Alternaria alternata. To be noted: 2.5 ppm. As to the method:
as §1, §2, §3, §4

For a further assay, the system named is Colletotrichum coccodes. Put plainly: In vitro-test with fungal microorganisms: Colletotrichum coccodes. As to conditions: 0.02 ppm. As to the method:
as §1, §2, §3, §4

Another assay has as its system Parastasonospora nodorum. The assay is described as follows: In vitro-test with fungal microorganisms: Parastasonospora nodorum. On the procedure:
as §1, §2, §3, §4

In another assay the test system is Fusarium culmorum. The assay is described as follows: In vitro-test with fungal microorganisms: Fusarium culmorum. As to the method:
as §1, §2, §3, §4

Values joined by “and” are separate entries in the source; they are usually repeats but may differ in a detail not shown here. Identical values can stand only once.

Take `COC(=O)C(O)(Cn1cncn1)c1ccc(Oc2ccc(Cl)cc2)cc1Cl` (centres unmarked) [(I-1), Methyl 2-[2-chloro-4-(4-chlorophenoxy)phenyl]-2-hydroxy-3-(1,2,4-triazol-1-yl)propanoate]: the efficacy was determined as 62% in the assay on Botrytis cinerea; 63% in the assay with Botrytis cinerea (with penflufen 1 ppm, metyltetraprole 0.08 ppm); 99% in the assay with Diaporthe citri (Table F1, 2.5 ppm); 2% in the assay on Diaporthe citri (Table F2, 0.02 ppm); 92% with Diaporthe citri (Table F2, 0.5 ppm); 98% with Diaporthe citri (Table F2, 2.5 ppm). Besides, the efficacy with Cercospora beticola (0.02 ppm) is 50%; with Cercospora beticola (0.1 ppm) it was 36%; in the assay with Cercospora beticola (0.5 ppm), 74%; with Cercospora beticola (2.5 ppm), 99%; in the assay on Alternaria alternata, 92%; with Colletotrichum coccodes it was 0% and 4%. In addition, the efficacy with Parastasonospora nodorum (Table H1, 0.02 ppm) is 0%; in the assay with Parastasonospora nodorum (Table H1, 2.5 ppm), 99%; in the assay on Parastasonospora nodorum (Table H2, 0.02 ppm), 2% and 0% and 3%; with Parastasonospora nodorum (Table H2, 2.5 ppm) it was 96%; in the assay on Parastasonospora nodorum (Table H3, 0.02 ppm) it was 9%; in the assay with Fusarium culmorum (0.02 ppm), 9%. For the same compound, the efficacy in the assay on Fusarium culmorum (0.1 ppm) was 6% and 0%; in the assay with Fusarium culmorum (0.5 ppm) it was 0%.
